# Source: publication PMC11472310, “Distinctive Immune Signatures Driven by Structural Alterations in Desmuramylpeptide NOD2 Agonists” (Journal of Medicinal Chemistry, 2024)
# Read-outs that look alike come from different tables or passages of the source.
# Legend:
# [1] = Kinetic solubility (method of Hoelke et al.); format: physicochemical
# Excerpt: Park et al. have shown that the degree of saturation of fatty acids exerts a profound impact on permeability of fatty acylated peptides—a higher degree of unsaturation results in higher permeability.[43] PUFA can also induce significant biophysical perturbations upon incorporation into membrane phospholipids.[67],[68] […] Given that the hydrophobicity of fatty acyl residues in general reduces as the number of unsaturated sites increases,[69],[70] we decided to ascertain how such structural modifications translate to the kinetic solubility of the molecule as a whole. […] The acylation with PUFA thus provides an elegant, albeit counterintuitive, approach, by which permeability of the molecule as a whole as well as its capacity for liposomal encapsulation can be enhanced without completely abolishing its aqueous solubility.
# human PBMCs = test: Cytokine release from peripheral blood mononuclear cells (LEGENDplex panel); format: cell-based; conditions: 18 h
# Excerpt: The immunomodulatory effects of the selected desmuramylpeptides were examined in human primary peripheral blood mononuclear cells (PBMCs). This diverse mixture of immune cells provided a platform to investigate the effects of these NOD2 agonists within a physiologically relevant environment, encompassing other NOD2-interacting and downstream signaling proteins. […] Given that NOD2 activation often modulates the Toll-like receptor (TLR)-induced cytokine responses, we investigated the impact of combining desmuramylpeptides with lipopolysaccharide (LPS), a well-known TLR4 agonist, on cytokine secretion.[76]−[78]
# The elicited cytokine profiles thus broadly reflect the structure–activity relationships obtained in the reporter gene assays.
# Peripheral blood mononuclear cells were plated at a density of 1 × 10^6 cells/mL in 48-well plates containing 500 μL of growth medium. Cells were then treated with the compounds (2 μM) or the corresponding vehicle (0.1% DMSO), both in the absence and presence of LPS (10 ng/mL). Following an 18 h incubation period at 37 °C with 5% CO2, cell-free supernatants were collected and stored at −80 °C until analysis. […] Standard curves were constructed using recombinant cytokines provided in the kit. Data analysis was performed using Biolegend software Qognit and Prism (GraphPad, San Diego, CA, USA) software. The experiments were independently replicated four times. Statistical significance was determined using two-way analysis of variance (ANOVA) followed by Tukey’s multiple comparisons test.
# K562 cancer cells = test: PBMC cytotoxicity against K562 cancer cells (flow cytometry); format: cell-based; conditions: for cytotoxicity of PBMCs against K562 cells, cotreatment with LPS (relative to negative control) / Cytotoxicity (ratio to control), + LPS: 10 μM + LPS 1 μg/mL; for cytotoxicity of PBMCs against K562 cells, cotreatment with LPS (relative to negative control) / enhancement of cytotoxicity of PBMCs against K562 cells (relative to negative control): 18 h, then 4 h coincubation; for cytotoxicity of PBMCs against K562 cells, cotreatment with LPS (relative to negative control): 40:1; for Cytotoxicity (ratio to control), + LPS / Cytotoxicity (ratio to control): Table S2; for Cytotoxicity (ratio to control) / enhancement of cytotoxicity of PBMCs against K562 cells (relative to negative control): alone: compounds 10 μM, LPS 1 μg/mL, IL-2 200 U/mL; for enhancement of cytotoxicity of PBMCs against K562 cells (relative to negative control): effector:target 40:1
# Procedure: In this study, we investigated the potential of desmuramylpeptides, both alone and in combination with LPS, to enhance the cytotoxic activity of PBMCs against cancer cells employing a flow-cytometry-based cytotoxicity assay based on coincubation of preactivated PBMCs with fluorescently labeled K562 cancer cells.[82] Among the diverse subpopulations within PBMCs, natural killer (NK) cells play a pivotal role in detecting and eliminating cancer cells. NOD2-mediated NK cell activity against cancer cells arises from both direct NOD2 agonist elicited cytolytic activity of NK cells[83] and indirect activation through cytokine release by other NOD2-responsive cells, such as monocytes, which comprise approximately 10% of PBMCs; such interactions potentially reinforce the immune response.[84] […] To that end, we utilized the entire PBMC population as effector cells rather than isolated NK cells, to mimic conditions more closely resembling the in vivo environment while K562 chronic myelogenous leukemia cells were used as the target cells in a 40:1 effector to target cell ratio.[87]
# (§1) The PBMC cytotoxicity assays utilizing K562 cells were conducted following previously established methods, with some adjustments.[82] […] Meanwhile, K562 cells were stained with CFSE (Invitrogen, Carlsbad, CA, USA), washed twice with complete medium, and then added (1 × 10^4 cells per well) to the pretreated PBMCs to achieve a final effector cell to target tumor cell ratio of 40:1. Following a 4-h coincubation period at 37 °C with 5% CO2, cells were stained with Sytox blue dead cell stain (Invitrogen) and analyzed using an Attune NxT flow cytometer (Thermo Fisher Scientific, Waltham, MA, USA) along with FlowJo software (Tree Star, Inc., Ashland, OR, USA). Cells positive for both CFSE and Sytox blue were designated as dead K562 cells. PBMCs alone and CFSE-labeled cancer cells alone were also exposed to the compounds at equivalent concentrations and stained with Sytox blue to assess any direct cytotoxic effects of the compounds on PBMCs and cancer cells separately. Each experiment was conducted in duplicate and repeated in three independent biological replicates. Statistical analysis was performed using one-way ANOVA followed by Dunnett’s multiple comparisons test.
# hNOD2 = molecular target: T1, hNOD2 (Homo sapiens, UniProt Q9HC29); test: HEK-Blue NOD2 cell line reporter assay (NF-κB-inducible SEAP); format: cell-based
# T1 construct: host or cells: HEK-Blue NOD2 cells (HEK293)
# Procedure: To assess the NOD2 agonistic potential of the synthesized desmuramylpeptides at a cellular level, we employed the HEK-Blue NOD2 cell line reporter assay, a validated and commercially available method. All synthesized compounds were evaluated for their dose-dependent activities to establish their EC50 values.
# The HEK-Blue NOD1 and NOD2 cell line reporter assay was generated from HEK293 cells through cotransfection of the hNOD1 or hNOD2 gene, respectively, along with an NF-κB-inducible secreted embryonic alkaline phosphatase (SEAP) reporter gene. Upon activation of NOD1 or NOD2, NF-κB triggers the production of SEAP, which can be quantitatively measured colorimetrically. […] After 18 h of incubation at 37 °C with 5% CO2, SEAP activity was measured spectrophotometrically by absorbance at 630 nm (BioTek Synergy microplate reader; Winooski, VT, USA). EC50 values were determined using Prism software (version 9; GraphPad Software, CA, USA). Each experiment was conducted in duplicate and repeated in at least two independent biological replicates.
# PBMCs = test: Direct cytotoxic effect of compounds on PBMCs (Sytox blue); format: cell-based; conditions: Table S2; for Percent of dead PBMCs, + LPS: 10 μM + LPS 1 μg/mL; for Percent of dead PBMCs: alone: compounds 10 μM, LPS 1 μg/mL, IL-2 200 U/mL
# Procedure: Additionally, PBMCs and cancer cells alone were treated with desmuramylpeptides to assess any direct cytotoxic effects on these cells.
# as §1
# [2] = HEK-Blue NOD2 cells, 18 h, NF-κB transcriptional activity (SEAP), read-out: EC50 (nM), NOD2 agonistic activity
# T1 sequence (Q9HC29 whole entry): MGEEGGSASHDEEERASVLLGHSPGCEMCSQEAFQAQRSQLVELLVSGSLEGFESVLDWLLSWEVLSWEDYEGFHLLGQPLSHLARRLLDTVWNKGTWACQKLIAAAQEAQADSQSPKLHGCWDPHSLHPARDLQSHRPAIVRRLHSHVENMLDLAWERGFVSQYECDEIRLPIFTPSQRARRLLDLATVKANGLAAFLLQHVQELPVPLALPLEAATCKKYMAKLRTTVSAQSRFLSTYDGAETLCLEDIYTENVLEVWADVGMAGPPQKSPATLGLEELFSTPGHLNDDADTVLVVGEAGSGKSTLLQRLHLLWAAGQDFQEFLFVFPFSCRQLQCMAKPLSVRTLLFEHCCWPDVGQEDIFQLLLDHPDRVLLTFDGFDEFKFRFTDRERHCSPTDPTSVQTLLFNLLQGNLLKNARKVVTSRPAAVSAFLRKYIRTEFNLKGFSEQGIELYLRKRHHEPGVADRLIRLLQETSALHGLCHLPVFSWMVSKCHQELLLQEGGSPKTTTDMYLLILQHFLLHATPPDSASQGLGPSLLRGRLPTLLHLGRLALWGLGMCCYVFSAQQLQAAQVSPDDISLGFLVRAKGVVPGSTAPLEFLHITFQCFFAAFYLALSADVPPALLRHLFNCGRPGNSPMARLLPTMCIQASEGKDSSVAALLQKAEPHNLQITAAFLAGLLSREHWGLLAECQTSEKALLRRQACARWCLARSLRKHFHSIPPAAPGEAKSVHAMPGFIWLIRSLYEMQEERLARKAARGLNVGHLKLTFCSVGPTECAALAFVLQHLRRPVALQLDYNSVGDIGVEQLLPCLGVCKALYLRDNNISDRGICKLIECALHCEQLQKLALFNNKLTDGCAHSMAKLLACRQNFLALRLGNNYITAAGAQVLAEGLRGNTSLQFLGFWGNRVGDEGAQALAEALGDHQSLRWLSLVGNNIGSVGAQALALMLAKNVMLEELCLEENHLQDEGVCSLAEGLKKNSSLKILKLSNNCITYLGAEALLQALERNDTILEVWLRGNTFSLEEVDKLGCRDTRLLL
solubility kinetic [1] [µM],EC50 (hNOD2; [2]) [nM],Kinetic solubility [1],SMILES,levels of LPS-induced IL-10 (human PBMCs; 2 μM + LPS 10 ng/mL),"cytotoxicity of PBMCs against K562 cells, cotreatment with LPS (relative to negative control) (K562 cancer cells) [fold]","Cytotoxicity (ratio to control), + LPS (K562 cancer cells)",Cytotoxicity (ratio to control) (K562 cancer cells),enhancement of cytotoxicity of PBMCs against K562 cells (relative to negative control) (K562 cancer cells),"Percent of dead PBMCs, + LPS (PBMCs)",Percent of dead PBMCs (PBMCs),also measured
417,,,CCOC(=O)CC[C@@H](NC(=O)[C@@H](NC(=O)CNC(=O)/C=C/c1ccc(O)c(OC)c1)C(C)C)C(=O)OCC [Compound 1],,,,,,,,
,9.9 ± 0.69,insoluble,CCCCCCCCCCCC(=O)Oc1ccc(/C=C/C(=O)NCC(=O)N[C@H](C(=O)N[C@H](CCC(=O)OCC)C(=O)OCC)C(C)C)cc1OC [Compound 2],amplified,1.54,1.54 ± 0.08,1.00 ± 0.05,no activity,8.07% ± 0.47%,0.96% ± 0.14%,"production of MCP-1 and IFN-γ compared to the MDP/LPS combination (human PBMCs; 2 μM + LPS 10 ng/mL): significantly diminished production; secretion of IL-1β, IL-10 and TGFβ compared to the MDP/LPS combination (human PBMCs; 2 μM + LPS 10 ng/mL): increased secretion; boost of NOD2 agonist activity on incorporation into SLN/NLC (hNOD2; 2-loaded SLNs and NLCs versus free 2): 5 factor; EC50 (hNOD2; HEK-Blue NOD2 cell line, SLN and NLC formulations by melt-emulsification): 10.5 nM"
,382 ± 121,insoluble,"CCCCCCCCCCCCCCCC(=O)Oc1ccc(/C=C/C(=O)NCC(=O)N[C@H](C(=O)N[C@H](CCC(=O)OCC)C(=O)OCC)C(C)C)cc1OC [Compound 9, Diethyl ((E)-3-(3-Methoxy-4-(palmitoyloxy)phenyl)acryloyl)glycyl-L-valyl-D-glutamate]",,,,,,,,
,8640 ± 1920,,"CCOC(=O)[C@@H](CCC(=O)NCCCNCCCCNCCCN)NC(=O)[C@@H](NC(=O)CNC(=O)/C=C/c1ccc(O)c(OC)c1)C(C)C [Compound 32, N^5-(3-((4-((3-Aminopropyl)amino)butyl)amino)propyl)-N^2-((E)-3-(4-hydroxy-3-methoxyphenyl)acryloyl)glycyl-L-valyl-D-glutaminate]",opposite,2.95,2.95 ± 0.41,1.10 ± 0.06,devoid of the capacity to induce cytotoxicity,7.20% ± 0.36%,1.01% ± 0.22%,"amounts of IL-1β, IL-6, IL-10, TNF-α and IFN-γ compared to the MDP/LPS combination (human PBMCs; 2 μM + LPS 10 ng/mL): lesser amounts; levels of secreted MCP-1 compared to the MDP/LPS combination (human PBMCs; 2 μM + LPS 10 ng/mL): on par; production of proinflammatory cytokines and chemokines including IL-6, IL-8 and MCP-1 (human PBMCs; 2 μM alone (no LPS)): smaller increases; EC50 (hNOD2; HEK-Blue NOD2 cells, 18 h, read-out: EC50, NOD2 agonistic activity (text)): 8600 nM"
209,356 ± 24,,"CCOC(=O)[C@@H](CCC(=O)OCCN1CCOCC1)NC(=O)[C@@H](NC(=O)CNC(=O)/C=C/c1ccc(O)c(OC)c1)C(C)C [Compound 35, 1-Ethyl 5-(2-Morpholinoethyl) ((E)-3-(4-hydroxy-3-methoxyphenyl)acryloyl)glycyl-L-valyl-D-glutamate]",,,,,,,,drop in activity compared to 1 (hNOD2; ethyl ester replaced with morpholinoethyl): 4 factor
321,96.1 ± 51.5,,"CCOC(=O)CC[C@@H](NC(=O)[C@@H](NC(=O)CNC(=O)/C=C/c1cc(OC)c(O)c(OC)c1)C(C)C)C(=O)OCC [Compound 37, Diethyl ((E)-3-(4-Hydroxy-3,5-dimethoxyphenyl)acryloyl)glycyl-L-valyl-D-glutamate]",,,,,,,,
